Measured values reported in patent US20190047966A1, “NOVEL COMPOUND AND PHARMACOLOGICALLY ACCEPTABLE SALT THEREOF” (MEIJI SEIKA PHARMA CO., LTD., priority 2016, published 2019).
Structures can show the parent of a compound that is named as a salt.

Key:
[1] = target: human histamine H1 receptor (Homo sapiens, UniProt P35367); assay: Evaluation of Human H1 Receptor Affinity ([3H]pyrilamine binding); parameters: purchased PerkinElmer Inc; host or cells: CHO-K1; settings: inhibition constant Ki, CHO-K1 membrane preparation
Sequence of human histamine H1 receptor (P35367 whole entry): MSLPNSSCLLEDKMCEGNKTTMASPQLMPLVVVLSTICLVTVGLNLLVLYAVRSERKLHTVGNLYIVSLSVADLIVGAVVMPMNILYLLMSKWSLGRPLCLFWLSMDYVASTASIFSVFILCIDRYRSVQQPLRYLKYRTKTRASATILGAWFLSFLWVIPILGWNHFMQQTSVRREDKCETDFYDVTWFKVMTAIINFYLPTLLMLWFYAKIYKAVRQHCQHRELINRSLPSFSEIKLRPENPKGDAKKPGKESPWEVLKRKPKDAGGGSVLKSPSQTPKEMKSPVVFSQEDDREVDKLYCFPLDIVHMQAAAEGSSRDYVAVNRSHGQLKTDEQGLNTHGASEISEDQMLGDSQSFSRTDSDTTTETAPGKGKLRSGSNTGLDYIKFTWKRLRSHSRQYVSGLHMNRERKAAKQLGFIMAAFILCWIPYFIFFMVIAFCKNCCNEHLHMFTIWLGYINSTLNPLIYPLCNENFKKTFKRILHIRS
Protocol: Test Example 1: Evaluation of Human H1 Receptor Affinity
Membrane preparation from recombinant CHO-K1 cell expressing the human histamine H1 receptor (PerkinElmer Inc.), radiolabeled ligand 1.2 nM [^3H]pyrilamine (PerkinElmer Inc.), and test compounds dissolved in DMSO were reacted at 25° C. for 3 hours in a buffering solution containing 50 mM tris-hydrochloric acid, pH 7.4, and 5 mM magnesium chloride on a 96 well plate, followed by filtration using a GF/B filter (PerkinElmer Inc.) pretreated with 0.3% polyethylenimine. The residue was washed four times with a buffering solution of 50 mM tris-hydrochloric acid, pH 7.4. Thereafter, a scintillation cocktail (MicroScint 20: PerkinElmer Inc.) was added to the GF/B filter, and the radioactivity of each well was measured using a liquid scintillation counter for 96-well (TopCount: PerkinElmer Inc.). The non-specific binding was evaluated in the presence of 1.0 μM pyrilamine. The inhibition constant Ki was calculated from the 50% inhibitory concentration (IC50 value) obtained in each test and the Kd value (1.1 nM) unique to this assay system, according to the Cheng-Prusoff equation.

[2] = target: T1, human histamine H4 receptor (Homo sapiens, UniProt Q9H3N8); assay: Evaluation of Human H4 Receptor Affinity ([3H]histamine binding); settings: inhibition constant Ki, CHO-K1 membrane preparation, read-out: Evaluation of H4 Receptor Affinity
T1 construct: purchased PerkinElmer Inc; host or cells: CHO-K1
Protocol: Test Example 2: Evaluation of Human H4 Receptor Affinity
Membrane preparation from recombinant CHO-K1 cell expressing the human histamine H4 receptor (PerkinElmer Inc.), radiolabeled ligand 8.2 nM [^3H]histamine (PerkinElmer Inc.), and compounds dissolved in DMSO were reacted at 25° C. for 90 minutes in a buffering solution containing 50 mM tris-hydrochloric acid, pH 7.4, and 1.25 mM EDTA on a 96 well plate, followed by filtration using a GF/B filter (PerkinElmer Inc.) pretreated with 0.3% polyethylenimine. The residue was washed four times with a buffering solution of 50 mM tris-hydrochloric acid, pH 7.4. Thereafter, a scintillation cocktail (MicroScint 20: PerkinElmer Inc.) was added to the GF/B filter, and the radioactivity of each well was measured using a liquid scintillation counter for 96-well (TopCount: PerkinElmer Inc.). The non-specific binding was evaluated in the presence of 1.0 μM histamine. The inhibition constant Ki was calculated from the 50% inhibitory concentration (IC50 value) obtained in each test and the Kd value (5.7 nM) unique to this assay system, according to the Cheng-Prusoff equation.

| Ki [1] | Ki [2] | Compound |
| --- | --- | --- |
| < 100 nM | 100 to 500 nM | Nc1nc2c(c(N3CCN(CCOc4cccc(CC(=O)O)c4)CC3)n1)CCc1cc(OCc3ccc(Cl)cc3)ccc1-2 [Example 130, 2-(3-(2-(4-(2-amino-8-((4-chlorobenzyl)oxy)-5,6-dihydrobenzo[h]quinazolin-4-yl)piperazin-1-yl)ethoxy)phenyl)acetic acid] |
| 100 to 500 nM | < 100 nM | CN1CCN(c2nc(N)nc3c2CCc2cc(NC(=O)Nc4ccc(Cl)cc4)ccc2-3)CC1 [Example 195, 1-(2-amino-4-(4-methylpiperazin-1-yl)-5,6-dihydrobenzo[h]quinazolin-8-yl)-3-(4-chlorophenyl)urea] |
| < 100 nM | < 100 nM | CCOC(=O)c1csc(COCCN2CCN(c3nc(N)nc4c3CCc3cc(OCc5ccc(Cl)cc5)ccc3-4)CC2)n1 [135(a), ethyl 2-((2-(4-(2-amino-8-((4-chlorobenzyl)oxy)-5,6-dihydrobenzo[h]quinazolin-4-yl)piperazin-1-yl)ethoxy)methyl)thiazole-4-carboxylate] |
| < 100 nM | 100 to 500 nM | CCS(=O)(=O)CCCN1CCN(c2nc(N)nc3c2CCc2cc(OCc4ccc(Cl)cc4)ccc2-3)CC1 [Example 114, 8-((4-chlorobenzyl)oxy)-4-(4-(3-(ethylsulfonyl)propyl)piperazin-1-yl)-5,6-dihydrobenzo[h]quinazolin-2-amine] |
| < 100 nM | < 100 nM | COC(=O)COCCOCCN1CCN(c2nc(N)nc3c2CCc2cc(OCc4ccc(Cl)cc4)ccc2-3)CC1 [11(a), methyl 2-(2-(2-(4-(2-amino-8-((4-chlorobenzyl)oxy)-5,6-dihydrobenzo[h]quinazolin-4-yl)piperazin-1-yl)ethoxy)ethoxy)acetate] |
| < 100 nM | 100 to 500 nM | COC(=O)c1cccc(COCCN2CCN(c3nc(N)nc4c3CCc3cc(OCc5ccc(Cl)cc5)ccc3-4)CC2)c1 [15(a), methyl 3-((2-(4-(2-amino-8-((4-chlorobenzyl)oxy)-5,6-dihydrobenzo[h]quinazolin-4-yl)piperazin-1-yl)ethoxy)methyl)benzoate] |
| < 100 nM | < 100 nM | Nc1nc2c(c(N3CCNCC3)n1)CCc1cc(OCc3ccccc3)ccc1-2 [Example 5, 8-(benzyloxy)-4-(piperazin-1-yl)-5,6-dihydrobenzo[h]quinazolin-2-amine] |
| < 100 nM | < 100 nM | Nc1nc2c(c(N3CCN(CCOc4csc(C(=O)O)c4)CC3)n1)CCc1cc(OCc3ccc(OC(F)(F)F)cc3)ccc1-2 [Example 183, 4-(2-(4-(2-amino-8-((4-(trifluoromethoxy)benzyl)oxy)-5,6-dihydrobenzo[h]quinazolin-4-yl)piperazin-1-yl)ethoxy)thiophene-2-carboxylic acid] |
| < 100 nM | < 100 nM | Nc1nc2c(c(N3CCN(CCOC[C@H]4CC[C@@H](C(=O)O)C4)CC3)n1)CCc1cc(OCc3ccc(Cl)cc3)ccc1-2 (relative stereo) [153(b), cis-3-((2-(4-(2-amino-8-((4-chlorobenzyl)oxy)-5,6-dihydrobenzo[h]quinazolin-4-yl)piperazin-1-yl)ethoxy)methyl)cyclopentane-l-carboxylic acid] |
| < 100 nM | < 100 nM | Nc1nc2c(c(N3CCN(CCCOCc4nnn[nH]4)CC3)n1)CCc1cc(OCc3ccc(Cl)cc3)ccc1-2 [Example 144, 4-(4-(3-((tetrazol-5-yl)methoxy)propyl)piperazin-1-yl)-8-((4-chlorobenzyl)oxy)-5,6-dihydrobenzo[h]quinazolin-2-amine bis(trifluoroacetate)] |
| < 100 nM | < 100 nM | Nc1nc2c(c(N3CCN(CCO[C@H]4C[C@@H](C(N)=O)C4)CC3)n1)CCc1cc(OCc3ccc(OC(F)(F)F)cc3)ccc1-2 [Example 33, cis 3-(2-(4-(2-amino-8-((4-(trifluoromethoxy)benzyl)oxy)-5,6-dihydrobenzo[h]quinazolin-4-yl)piperazin-1-yl)ethoxy)cyclobutane-1-carboxamide] |
| 100 to 500 nM | 100 to 500 nM | COC(=O)c1ccc(S(=O)(=O)Nc2ccc3c(c2)CCc2c-3nc(N)nc2N2CCN(C)CC2)cc1 [Example 55, methyl 4-(N-(2-amino-4-(4-methylpiperazin-1-yl)-5,6-dihydrobenzo[h]quinazolin-8-yl)sulfamoyl)benzoate] |
| < 100 nM | < 100 nM | Nc1nc2c(c(N3CCN(CCCCOCc4nnn[nH]4)CC3)n1)CCc1cc(OCc3ccc(Cl)cc3)ccc1-2 [Example 145, 4-(4-(4-((tetrazol-5-yl)methoxy)butyl)piperazin-1-yl)-8-((4-chlorobenzyl)oxy)-5,6-dihydrobenzo[h]quinazolin-2-amine bis(trifluoroacetate)] |
| 100 to 500 nM | 100 to 500 nM | CN1CCN(c2nc(N)nc3c2CCc2cc(NS(=O)(=O)c4ccccc4)ccc2-3)CC1 [Example 41, N-(2-amino-4-(4-methylpiperazin-1-yl)-5,6-dihydrobenzo[h]quinazolin-8-yl)benzenesulfonamide] |
| < 100 nM | < 100 nM | CC(C)(C(=O)O)[C@H]1C[C@H](OCCN2CCN(c3nc(N)nc4c3CCc3cc(OCc5ccc(OC(F)(F)F)cc5)ccc3-4)CC2)C1 [Example 174, trans-2-(3-(2-(4-(2-amino-8-((4-(trifluoromethoxy)benzyl)oxy)-5,6-dihydrobenzo[h]quinazolin-4-yl)piperazin-1-yl)ethoxy)cyclobutyl)-2-methylpropanoic acid] |
| < 100 nM | 100 to 500 nM | Nc1nc2c(c(N3CCN(CCOCCn4ccc(C(=O)O)n4)CC3)n1)CCc1cc(OCc3ccc(Cl)cc3)ccc1-2 [Example 138, 1-(2-(2-(4-(2-amino-8-((4-chlorobenzyl)oxy)-5,6-dihydrobenzo[h]quinazolin-4-yl)piperazin-1-yl)ethoxy)ethyl)-1H-pyrazole-3-carboxylic acid dihydrochloride] |
| < 100 nM | < 100 nM | Nc1nc2c(c(N3CCN(CCOC[C@H]4CC[C@@H](C(=O)O)C4)CC3)n1)CCc1cc(OCc3ccc(OC(F)(F)F)cc3)ccc1-2 (relative stereo) [Example 155] |
| 100 to 500 nM | 100 to 500 nM | CN1CCN(c2nc(N)nc3c2CCc2cc(NS(=O)(=O)Cc4ccccc4)ccc2-3)CC1 [Example 48, N-(2-amino-4-(4-methylpiperazin-1-yl)-5,6-dihydrobenzo[h]quinazolin-8-yl)-1-phenylmethanesulfonamide] |
| < 100 nM | < 100 nM | Nc1nc2c(c(N3CCNCC3)n1)CCc1cc(OCc3ccc(OC(F)(F)F)cc3)ccc1-2 [Example 6, 4-(piperazin-1-yl)-8-((4-(trifluoromethoxy)benzyl)oxy)-5,6-dihydrobenzo[h]quinazolin-2-amine] |
| < 100 nM | 100 to 500 nM | COC(=O)c1cccc(OCCCN2CCN(c3nc(N)nc4c3CCc3cc(OCc5ccc(Cl)cc5)ccc3-4)CC2)c1 [131(a), methyl 3-(3-(4-(2-amino-8-((4-chlorobenzyl)oxy)-5,6-dihydrobenzo[h]quinazolin-4-yl)piperazin-1-yl)propoxy)benzoate] |
| < 100 nM | 100 to 500 nM | Nc1nc2c(c(N3CCN(CCCOc4cccc(C(=O)O)c4)CC3)n1)CCc1cc(OCc3ccc(Cl)cc3)ccc1-2 [131(b), 3-(3-(4-(2-amino-8-((4-chlorobenzyl)oxy)-5,6-dihydrobenzo[h]quinazolin-4-yl)piperazin-1-yl)propoxy)benzoic acid] |
